The record followed here is ChEMBL document CHEMBL5321216, “Discovery of bipyridine amide derivatives targeting pRXRα-PLK1 interaction for anticancer therapy” (Eur J Med Chem, 2023).

By Tmax is commonly meant the time at which the peak concentration occurs. For orientation: IC50 means the point on the concentration scale where inhibition reaches its midpoint. Usually AUC(0-inf) stands for the area under the concentration-time curve extrapolated to infinity. As a reminder, the Cmax is the peak of the concentration-time curve.

The nature of data set [1]: Elimination half life in Sprague-Dawley rat at 25 mg/kg, ip measured for 48 hrs by LC-MS/MS analysis. Type of data set: ADME, organism-based. To be noted: in vivo, read-out: beta t1/2 (converted).
Data set [2] concerns MDA-MB-231. Nature of the data set: Antiproliferative activity against human MDA-MB-231 cells assessed as cell viability rate at 5 uM incubated for 72 hrs by MTT assay relative to control. Format: functional. In general terms: Formazan colour is commonly taken as a measure of viable cells.
Data set [3] is described as follows: Drug absorption in KM mouse at 25 mg/kg, po measured after 0.5 to 2 hrs. Format: ADME, organism-based. To be noted: in vivo, time 0.5-2 hrs.
The subject of data set [4] is MDA-MB-231. Put plainly: Induction of apoptosis in human MDA-MB-231 cells assessed as dead cells at 20 uM incubated for 24 hrs by annexin V-FITC/PI staining based flow cytometry analysis (reference value: 0.69%). Format: functional.
The subject of data set [5] is A549. Put plainly: Induction of apoptosis in human A549 cells assessed as live cells at 20 uM incubated for 24 hrs by annexin V-FITC/PI staining based flow cytometry analysis (reference value: 93.2%). Format: functional. Background: Flow cytometry measures light scatter and fluorescence of single cells or particles in a stream.
Data set [6] concerns A549. Nature of the data set: Induction of apoptosis in human A549 cells assessed as late apoptotic cells at 20 uM incubated for 24 hrs by annexin V-FITC/PI staining based flow cytometry analysis (reference value: 5.28%). Format: functional.
The nature of data set [7]: Apparent clearance during terminal phase in Sprague-Dawley rat at 25 mg/kg, ip measured for 48 hrs by LC-MS/MS analysis. To be noted: in vivo, read-out: CLz/F (converted). Format: ADME, organism-based.
Data set [8] has as its system MDA-MB-231. Nature of the data set: Induction of apoptosis in human MDA-MB-231 cells assessed as early apoptotic cells at 20 uM incubated for 24 hrs by annexin V-FITC/PI staining based flow cytometry analysis (reference value: 2.03%). Format: functional.
Data set [9] can be described thus: Tmax in Sprague-Dawley rat at 25 mg/kg, ip measured for 48 hrs by LC-MS/MS analysis. Format: ADME, organism-based. Particulars: in vivo; call rule not given here.
For data set [10], the system named is A549. Put plainly: Induction of apoptosis in human A549 cells assessed as dead cells at 20 uM incubated for 24 hrs by annexin V-FITC/PI staining based flow cytometry analysis (reference value: 0.75%). Format: functional.
Data set [11] deals with A549. Put plainly: Induction of apoptosis in human A549 cells assessed as early apoptotic cells at 20 uM incubated for 24 hrs by annexin V-FITC/PI staining based flow cytometry analysis (reference value: 0.78%). Type of data set: functional.
Data set [12] concerns MDA-MB-231. Put plainly: Antiproliferative activity against human MDA-MB-231 cells assessed as inhibition of cell proliferation incubated for 72 hrs by MTT assay. Format: functional, cell-based. To be noted: MDA-MB-231, 72 h.
The next data set deals with HepG2. Put plainly: Antiproliferative activity against human HepG2 cells assessed as cell viability rate at 5 uM incubated for 72 hrs by MTT assay relative to control. Format: functional.
Data set [13] can be described thus: AUC (0 to infinity) in Sprague-Dawley rat at 25 mg/kg, ip measured for 48 hrs by LC-MS/MS analysis. Type of data set: ADME, organism-based. Also noted: time 48 hrs, dose 25 mg/kg, route ip. To be noted: in vivo.
The nature of data set [14]: Apparent volume of distribution during terminal phase in Sprague-Dawley rat at 25 mg/kg, ip measured for 48 hrs by LC-MS/MS analysis. Type of data set: ADME, organism-based. Particulars: in vivo, read-out: Vz/F.
Data set [15] can be described thus: Drug absorption in KM mouse at 25 mg/kg, ip measured after 0.5 to 2 hrs. To be noted: in vivo, time 0.5-2 hrs. Format: ADME, organism-based.
Data set [16] is described as follows: Cmax in Sprague-Dawley rat at 25 mg/kg, ip measured for 48 hrs by LC-MS/MS analysis. Type of data set: ADME, organism-based. Also on record: time 48 hrs, dose 25 mg/kg, route ip. Particulars: in vivo.
For data set [17], the system named is A549. Put plainly: Antiproliferative activity against human A549 cells assessed as cell viability rate at 5 uM incubated for 72 hrs by MTT assay relative to control. Type of data set: functional.
In data set [18] the test system is MDA-MB-231. Nature of the data set: Induction of apoptosis in human MDA-MB-231 cells assessed as late apoptotic cells at 20 uM incubated for 24 hrs by annexin V-FITC/PI staining based flow cytometry analysis (reference value: 5.93%). Type of data set: functional.
In data set [19] the test system is MDA-MB-231. Nature of the data set: Induction of apoptosis in human MDA-MB-231 cells assessed as live cells at 20 uM incubated for 24 hrs by annexin V-FITC/PI staining based flow cytometry analysis (reference value: 91.3%). Type of data set: functional.

As for `COc1ccc(CC(=O)N/N=C/c2c(O)ccc3ccccc23)cc1`, the half-life in [1] was 2.13 h. The Activity is 51.93% with MDA-MB-231 [2]; 1.22% in the data set with MDA-MB-231 [4]; 40.1% in the data set with A549 [5]; 32.7% in the data set on A549 [6]; 23.5% in the data set on MDA-MB-231 [8]; 1.15% in the data set on A549 [10]. Moreover, the Activity in the data set on A549 [11] worked out at 26.1%; with HepG2 it was 48.65%; with A549 [17] it was 82.65%; in the data set on MDA-MB-231 [18] it was 12.7%; with MDA-MB-231 [19], 62.5%. Moreover, the results for the Drug absorption result in data set [3] and in [15] were “Not Active” and “Active”, respectively. Besides, the CL/F in data set [7] was 61.2 mL/min/kg. Besides, the Tmax in data set [9] was found to be 2.67 h. Also, the IC50 in the data set on MDA-MB-231 [12] was 6.88 µM. Further, in data set [13], the AUC(0-inf) is 7040 ng·h/mL. In addition, in [14], the Vd/F amounted to 11.3 L/kg. In data set [16], this compound came in with a Cmax of 1060 ng/mL.
